Assays:
[1] = In vitro metabolic stability (CLint), human; format: in vitro ADME; settings: intrinsic clearance, incubation 0-30 minutes at 37° C. with NADPH regenerating system
Protocol: The objective of this study was to determine metabolic stability of test items in preclinical species and human liver microsomes. Verapamil and dextromethorphan were used as positive controls for microsomal incubation.
Incubation medium was prepared by combining 11.2 mL of potassium phosphate monobasic and 38.8 mL of potassium phosphate dibasic, diluted to 1 L with water. Cryopreserved microsomes were thawed and kept on ice until use. Microsomes were then diluted in incubation to a protein concentration of 0.56 mg/mL. Cells were centrifuged, re-suspended in medium and counted by means of a haemocytometer. Cell viability was measured using the Trypan Blue exclusion test.
NADPH regenerating system solution was prepared by dissolving 1.7 mg of NADP, 7.8 mg of G6P and 6 units of G6P-Dehydrogenase in 1 mL of 2% sodium bicarbonate solution (prepared by dissolving 20 g of NaHCO3 in 1 L of water).
Test compounds were separately dissolved in DMF to obtain 10 mM stock solutions that were further diluted in water/acetonitrile 50/50 (v/v) to obtain the corresponding 50 uM working solutions. Verapamil and dextromethorphan were dissolved in DMF in order to obtain a 10 mM verapamil solution and 10 mM dextromethorphan solution. These solutions were then diluted in the incubation medium in order to obtain a 50 uM verapamil working solution and a 50 uM dextromethorphan working solution.
800 μL-aliquots of NADPH regenerating system were pre-warmed at 37° C. for 5 minutes. […]
Metabolic stability was calculated from the peak area ratio of the remaining test compound with internal standard versus time. The intrinsic clearance (CLint) was determined from the first order elimination constant k (min^−1) (obtained from GraphPad by plotting the natural logarithm of the peak area ratio of the remaining test item with internal standard versus time), using the actual volume of the incubation V (mL), the amount of hepatocytes in the incubation M (million cells) and the hepatocellularity number per g liver Hn (120 for human).

CYP2C8 = biological target: T1, CYP2C8 (Homo sapiens, UniProt P10632); experiment: CYP450 inhibition, Vivid Baculosomes (2C8/DBOMF); format: in vitro ADME; settings: recombinant human CYP450 Baculosomes, substrate DBOMF; top concentration 5.00E-05
T1 construct: purchased
T1 sequence (P10632 1-490): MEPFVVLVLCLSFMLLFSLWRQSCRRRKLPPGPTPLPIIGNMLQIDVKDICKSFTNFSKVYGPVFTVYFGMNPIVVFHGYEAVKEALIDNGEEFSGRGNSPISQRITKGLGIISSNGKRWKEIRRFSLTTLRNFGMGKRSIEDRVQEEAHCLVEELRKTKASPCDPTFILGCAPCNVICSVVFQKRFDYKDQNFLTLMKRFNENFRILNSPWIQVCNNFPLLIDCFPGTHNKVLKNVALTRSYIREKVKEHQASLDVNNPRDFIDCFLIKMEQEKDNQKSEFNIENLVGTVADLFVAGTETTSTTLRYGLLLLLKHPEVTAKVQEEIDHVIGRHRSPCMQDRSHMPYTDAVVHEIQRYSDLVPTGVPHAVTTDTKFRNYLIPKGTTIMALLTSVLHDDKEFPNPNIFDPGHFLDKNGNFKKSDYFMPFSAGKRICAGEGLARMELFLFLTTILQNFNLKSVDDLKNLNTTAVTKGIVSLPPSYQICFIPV
Text: The method uses recombinant human CYP450 to metabolize pro-fluorescent probe substrates to fluorescent products. IC50 values for the effect of test compounds on the metabolism of these probe substrates provides a measure of the potency of inhibition of individual CYP450 isoforms.
The described assays measure in vitro inhibitory effects (pIC50) of compounds at the human P450 isoforms (1A2, 2C8, 2C9, 2C19, 2D6, 3A4) expressed in recombinant microsomes. Pro-fluorescent probe substrates are metabolized to fluorescent products by the enzymes.
Fluorescence is measured in kinetic mode (1 read/min for 10 min) and the fluorescence rate is calculated. Data are normalized to controls: DMSO represents 0% effect (i.e. no inhibition), while 10 μM Miconazole is set to 100% effect (i.e. complete inhibition).
Inhibition of the fluorescent signal determined by P450 […] indicates antagonist activity of the compound and allows for the calculation of the compound plC50.
CRCs of compounds are run on two different test occasions (n=2) by preparing serial dilutions from the same compound stock solution. Details of the solutions are outlined in Table 6:
Test compound serial dilutions 1 to 3 were performed from a 10 mM stock solution in DMSO by Biomek FX to generate 10 point CRC. 100% DMSO was used for assay low controls. 10 mM (2 mM for 3A4/DBOMF, 2C8/DBOMF assay only) miconazole solution in DMSO was used as assay high controls. The final concentrations of the 10 point CRCs of test compounds in the assay plate were 5.00E-05; 1.67E-05; 5.56E-06; 1.85E-06; 6.17E-07; 2.06E-07; 6.86E-08; 2.29E-08; 7.62E-09 and 2.54E-09, respectively.
The CYP3A4 and CYP2C8 were assayed using the Vivid CYP3A4 Baculosomes, CYP2C8 Baculosomes and Vivid DBOMF Substrate. […]
10 μl/well from compound plate was added and incubated for 10 min at 37° C. on a plate shaker. […] The plate was transferred into the fluorescent plate reader (EnVision, Wallac) immediately within 2 min and monitor fluorescence every minute for 10 (Excitation 485, Emission 535 and Mirror 505 FITC). […]
The inhibition effect was expressed as percentage. […]

SMILES | CLi human [1] | IC50 (CYP2C8)
CC1(C)NC(=O)N(c2ccc(Oc3cccc(OC(F)(F)F)c3)nc2N)C1=O [Example 9, 3-[2-amino-6-[3-(trifluoromethoxy)phenoxy]-3-pyridyl]-5,5-dimethyl-imidazolidine-2,4-dione] | <0.5 mL/min/g liver | > 50 µM
Cc1ccc(Oc2ccc(N3C(=O)NC(C)(C)C3=O)c(N)n2)c2c1OCC21CC1 [Example 1, 3-[2-amino-6-(7-methylspiro[2H-benzofuran-3,1′-cyclopropane]-4-yl)oxy-3-pyridyl]-5,5-dimethyl-imidazolidine-2,4-dione] | 1.1 mL/min/g liver | 8.9 µM
COc1nc(Oc2ccc(C)c3c2C2(CC2)CO3)ccc1N1C(=O)NC(C)(C)C1=O [Reference Example 2, reference compound] | 2.0 mL/min/g liver | 2.3 µM
